The values below come from patent publication US10202354B2, “Therapeutic compounds and uses thereof” (GENENTECH, INC., priority 2015, dated 2019).

The structures appear in SMILES notation.

Full length KDM2B, sequence (Q8NHM5 whole entry): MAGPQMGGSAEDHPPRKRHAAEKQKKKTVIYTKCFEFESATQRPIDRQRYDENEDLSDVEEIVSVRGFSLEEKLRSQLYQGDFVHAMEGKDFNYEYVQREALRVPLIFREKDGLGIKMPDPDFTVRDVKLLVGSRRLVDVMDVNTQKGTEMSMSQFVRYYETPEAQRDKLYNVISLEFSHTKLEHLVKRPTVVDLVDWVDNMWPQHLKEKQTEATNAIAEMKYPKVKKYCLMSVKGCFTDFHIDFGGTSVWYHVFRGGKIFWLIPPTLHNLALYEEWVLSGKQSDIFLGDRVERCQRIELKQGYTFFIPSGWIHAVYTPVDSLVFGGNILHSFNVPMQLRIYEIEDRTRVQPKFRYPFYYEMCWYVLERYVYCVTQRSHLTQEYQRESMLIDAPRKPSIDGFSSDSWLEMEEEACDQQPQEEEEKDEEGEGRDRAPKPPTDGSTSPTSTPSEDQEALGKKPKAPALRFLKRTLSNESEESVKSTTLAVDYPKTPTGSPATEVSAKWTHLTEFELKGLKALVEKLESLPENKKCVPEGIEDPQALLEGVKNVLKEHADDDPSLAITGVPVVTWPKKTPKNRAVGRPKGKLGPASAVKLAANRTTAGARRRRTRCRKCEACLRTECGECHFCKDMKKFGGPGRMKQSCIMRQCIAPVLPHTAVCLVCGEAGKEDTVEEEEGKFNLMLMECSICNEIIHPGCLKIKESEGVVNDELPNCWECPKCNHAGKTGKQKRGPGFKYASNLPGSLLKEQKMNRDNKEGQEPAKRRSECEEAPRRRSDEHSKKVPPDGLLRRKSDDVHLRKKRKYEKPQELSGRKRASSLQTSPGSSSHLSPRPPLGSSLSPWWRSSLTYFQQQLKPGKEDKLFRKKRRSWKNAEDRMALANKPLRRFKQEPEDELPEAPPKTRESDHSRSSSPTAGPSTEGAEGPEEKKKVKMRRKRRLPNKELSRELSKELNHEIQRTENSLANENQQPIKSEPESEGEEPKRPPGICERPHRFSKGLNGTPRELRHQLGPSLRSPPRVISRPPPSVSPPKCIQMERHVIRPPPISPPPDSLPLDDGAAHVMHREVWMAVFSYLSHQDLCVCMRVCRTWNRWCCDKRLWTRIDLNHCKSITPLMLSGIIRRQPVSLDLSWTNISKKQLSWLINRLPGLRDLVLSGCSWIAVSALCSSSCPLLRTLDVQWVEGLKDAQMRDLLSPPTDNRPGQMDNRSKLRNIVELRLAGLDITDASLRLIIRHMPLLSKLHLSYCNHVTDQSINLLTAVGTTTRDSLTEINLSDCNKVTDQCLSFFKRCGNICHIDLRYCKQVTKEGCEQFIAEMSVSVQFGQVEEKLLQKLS

This assay deals with Full length KDM2B (Homo sapiens (Human), UniProt Q8NHM5). The assay can be described thus: KDM2B TR-FRET Assay for Determining Inhibitor IC50. The assay is classed as biochemical. Particulars: TR-FRET (HTRF), biotin-H3K36me2 peptide substrate. The text has this:
KDM2B TR-FRET Assay for Determining Inhibitor IC50
The KDM2B TR-FRET Assay described above represents an additional embodiment of the invention.
Background: In TR-FRET formats the signal depends on donor and acceptor labels being close together.
`CC(C)c1ccc(S(=O)(=O)N2CCN=C2N2CCC(N3CCOCC3)CC2)cc1` [Example 49, 4-[1-[1-(4-isopropylphenyl)sulfonyl-4,5-dihydroimidazol-2-yl]-4-piperidyl]morpholine]: 4220 pM corresponded to half-maximal inhibition (IC50).

With `N#Cc1ccc2cc(S(=O)(=O)N3CCN=C3N3CCN(C4CCC4)CC3)ccc2c1` [Example 36, 6-[[2-(4-cyclobutylpiperazin-1-yl)-4,5-dihydroimidazol-1-yl]sulfonyl]naphthalene-2-carbonitrile], the midpoint of inhibition, the IC50, lay at 130 pM.

Turning to `CC(C)c1ccc(S(=O)(=O)N2CCN=C2N2CCN(C3CCC3)C(C)C2)cc1` (stereo not drawn) [Example 37, 1-cyclobutyl-4-[1-(4-isopropylphenyl)sulfonyl-4,5-dihydroimidazol-2-yl]-2-methyl-piperazine], it took 689 pM to reach half-maximal inhibition (IC50).

With `O=C(c1ccc(Cl)cc1)N1CCN=C1N1CCN(C2CCC2)CC1` [Example 88, (4-chlorophenyl)-[2-(4-cyclobutylpiperazin-1-yl)-4,5-dihydroimidazol-1-yl]methanone], the half-inhibitory concentration (IC50) (as a rule, the midpoint of a concentration-inhibition curve) stood at 2210 pM. This IC50 is about 3.2-fold higher than that of the compound before.

For `CC(C)c1ccc(S(=O)(=O)N2C[C@H](C3CC3)N=C2N2CCN(C3CCC3)CC2)cc1` [Example 42, (S)-1-cyclobutyl-4-(4-cyclopropyl-1-((4-isopropylphenyl)sulfonyl)-4,5-dihydro-1H-imidazol-2-yl)piperazine], the half-maximal inhibitory concentration (IC50) was 47 pM. Against the preceding compound, the IC50 is about 47-fold lower.

For the compound `O=S(=O)(c1ccc(C2CC2)cc1)N1CCN=C1N1CCN(C2CCC2)CC1` [Example 34, 1-cyclobutyl-4-[1-(4-cyclopropylphenyl)sulfonyl-4,5-dihydroimidazol-2-yl]piperazine], the midpoint of inhibition, the IC50, lay at 58 pM.

`O=S(=O)(c1cccc(C2CC2)c1)N1CCN=C1N1CCN(C2CCC2)CC1` [Example 35, 1-cyclobutyl-4-[1-(3-cyclopropylphenyl)sulfonyl-4,5-dihydroimidazol-2-yl]piperazine] had an IC50 of 87 pM.

The compound `O=C(c1ccccc1Cl)N1CCN=C1N1CCN(C2CCC2)CC1` [Example 87, (2-chlorophenyl)-[2-(4-cyclobutylpiperazin-1-yl)-4,5-dihydroimidazol-1-yl]methanone] showed a 50% inhibitory concentration (IC50) of 2220 pM. This IC50 is about 26-fold higher than that of the compound before.

Compound `Cn1nccc1-c1ccc(S(=O)(=O)N2CCN=C2N2CCN(C3CCC3)CC2)cc1` [Example 29, 1-cyclobutyl-4-[1-[4-(2-methylpyrazol-3-yl)phenyl]sulfonyl-4,5-dihydroimidazol-2-yl]piperazine] displayed an IC50 of 49 pM.

Compound `O=S(=O)(c1ccc(-c2ccc(O)cc2)cc1)N1CCN=C1N1CCN(C2CCC2)CC1` [Example 17, 4-[4-[[2-(4-cyclobutylpiperazin-1-yl)-4,5-dihydroimidazol-1-yl]sulfonyl]phenyl]phenol] came in with an IC50 of 21 pM. This IC50 is about 2.3-fold lower than that of the compound before.

With `CCN1CCN(C2=NCCN2S(=O)(=O)c2ccccc2Cl)CC1` [Example 114, 1-[1-(2-chlorophenyl)sulfonyl-4,5-dihydroimidazol-2-yl]-4-ethyl-piperazine], inhibition was half-maximal at 2800 pM (IC50).

Turning to `CCN1CCN(C2=NCCN2S(=O)(=O)c2cccc3nonc23)CC1` [Example 120, 4-[[2-(4-ethylpiperazin-1-yl)-4,5-dihydroimidazol-1-yl]sulfonyl]-2,1,3-benzoxadiazole], the IC50 was determined as 13300 pM.

Take `CCN1CCN(C2=NCCN2S(=O)(=O)c2ccccc2C#N)CC1` [Example 112, 2-[[2-(4-ethylpiperazin-1-yl)-4,5-dihydroimidazol-1-yl]sulfonyl]benzonitrile]: the midpoint of inhibition, the IC50, lay at 9810 pM.

With `N#Cc1ccccc1-c1ccc(S(=O)(=O)N2CCN=C2N2CCN(C3CCC3)CC2)cc1` [Example 1, 2-[4-[[2-(4-cyclobutylpiperazin-1-yl)-4,5-dihydroimidazol-1-yl]sulfonyl]phenyl]benzonitrile], it took 53 pM to reach half-maximal inhibition (IC50).

Take `CC1CC(N2CCN(C3=NCCN3S(=O)(=O)c3ccc(C(C)C)cc3)CC2)C1` (stereo not drawn) [Example 39, 1-[1-(4-isopropylphenyl)sulfonyl-4,5-dihydroimidazol-2-yl]-4-(3-methylcyclobutyl)piperazine]: half-maximal inhibition (IC50) was put at 860 pM.

In the case of `CC(C)c1ccc(S(=O)(=O)N2C[C@@H](C3CC3)N=C2N2CCN(C3CCC3)CC2)cc1` [Example 41, (R)-1-cyclobutyl-4-(4-cyclopropyl-1-((4-isopropylphenyl)sulfonyl)-4,5-dihydro-1H-imidazol-2-yl)piperazine], the IC50 was determined as 39 pM. Compared with the last compound, the IC50 is about 22-fold lower.

With `O=S(=O)(c1ccc2cc(Cl)ccc2c1)N1CCN=C1N1CCN(C2CCC2)CC1` [Example 74, 1-[1-[(6-chloro-2-naphthyl)sulfonyl]-4,5-dihydroimidazol-2-yl]-4-cyclobutyl-piperazine], it took 41 pM to reach half-maximal inhibition (IC50).

`O=S(=O)(c1cc(Cl)cc(Cl)c1)N1CCN=C1N1CCN(C2CCC2)CC1` [Example 62, 1-cyclobutyl-4-[1-(3,5-dichlorophenyl)sulfonyl-4,5-dihydroimidazol-2-yl]piperazine] showed an IC50 of 306 pM. This IC50 is about 7.5-fold higher than that of the compound before.

With `Cc1ccccc1C(=O)N1CCN=C1N1CCN(C2CCC2)CC1` [Example 83, [2-(4-cyclobutylpiperazin-1-yl)-4,5-dihydroimidazol-1-yl]-(o-tolyl)methanone], the 50% inhibitory concentration (IC50) was 3070 pM.

On to `CCN1CCN(C2=NCCN2S(=O)(=O)c2ccc3ccccc3c2)CC1` [Example 110, 1-ethyl-4-[1-(2-naphthylsulfonyl)-4,5-dihydroimidazol-2-yl]piperazine], for which the IC50 came out at 998 pM.

As to `CCN1CCN(C2=NCCN2S(=O)(=O)c2ccc(F)cc2F)CC1` [Example 109, 1-[1-(2,4-difluorophenyl)sulfonyl-4,5-dihydroimidazol-2-yl]-4-ethyl-piperazine], the IC50 was 6330 pM.

Turning to `CC(=O)Nc1ccc(S(=O)(=O)N2CCN=C2N2CCN(C3CCC3)CC2)cc1Cl` [Example 81, N-[2-chloro-4-[[2-(4-cyclobutylpiperazin-1-yl)-4,5-dihydroimidazol-1-yl]sulfonyl]phenyl]acetamide], the IC50 was 127 pM.

`O=S(=O)(c1ccc(-c2ccccc2C(F)(F)F)cc1)N1CCN=C1N1CCN(C2CCC2)CC1` [Example 4, 1-cyclobutyl-4-[1-[4-[2-(trifluoromethyl)phenyl]phenyl]sulfonyl-4,5-dihydroimidazol-2-yl]piperazine]: inhibition was half-maximal at 102 pM (IC50).

Compound `CCN1CCN(C2=NCCN2S(=O)(=O)c2ccccc2OC(F)(F)F)CC1` [Example 33, 1-ethyl-4-[1-[2-(trifluoromethoxy)phenyl]sulfonyl-4,5-dihydroimidazol-2-yl]piperazine] gave an IC50 of 8510 pM.

On to `O=S(=O)(c1ccc(-c2ccccn2)cc1)N1CCN=C1N1CCN(C2CCC2)CC1` [Example 6, 1-cyclobutyl-4-[1-[4-(2-pyridyl)phenyl]sulfonyl-4,5-dihydroimidazol-2-yl]piperazine], for which the IC50 turned out to be 102 pM.

`O=S(=O)(c1cccc(C(F)(F)F)c1)N1CCN=C1N1CCN(C2CCC2)CC1` [Example 60, 1-cyclobutyl-4-[1-[3-(trifluoromethyl)phenyl]sulfonyl-4,5-dihydroimidazol-2-yl]-piperazine] gave an IC50 of 278 pM. This IC50 is about 2.7-fold higher than that of the compound before.

For the compound `COc1ccc(C(=O)N2CCN=C2N2CCN(C3CCC3)CC2)cc1` [Example 89, [2-(4-cyclobutylpiperazin-1-yl)-4,5-dihydroimidazol-1-yl]-(4-methoxyphenyl)methanone], the IC50 was determined as 4380 pM. This IC50 lies about 16-fold higher than the previous one.

Compound `CCN1CCN(C2=NCCN2S(=O)(=O)c2ccc(C)cc2)CC1` [Example 117, 1-ethyl-4-[1-(p-tolylsulfonyl)-4,5-dihydroimidazol-2-yl]piperazine] yielded an IC50 of 3760 pM.

Consider `O=S(=O)(c1ccc(-c2cccs2)cc1)N1CCN=C1N1CCN(C2CCC2)CC1` [Example 19, 1-cyclobutyl-4-[1-[4-(2-thienyl)phenyl]sulfonyl-4,5-dihydroimidazol-2-yl]piperazine], for which the IC50 was found to be 27 pM.

With `CCN1CCN(C2=NCCN2S(=O)(=O)c2ccc(Cl)c(Cl)c2)CC1` [Example 69, 1-[1-(3,4-dichlorophenyl)sulfonyl-4,5-dihydroimidazol-2-yl]-4-ethyl-piperazine], the IC50 stood at 11500 pM.

Regarding `CCN1CCN(C2=NCCN2S(=O)(=O)c2ccc(C(F)(F)F)cc2)CC1` [Example 107, 1-ethyl-4-[1-[4-(trifluoromethyl)phenyl]sulfonyl-4,5-dihydroimidazol-2-yl]piperazine], half-maximal inhibition (IC50) required 3920 pM. This IC50 lies about 2.9-fold lower than the previous one.

Regarding `COc1cccc(C(=O)N2CCN=C2N2CCN(C3CCC3)CC2)c1` [Example 90, [2-(4-cyclobutylpiperazin-1-yl)-4,5-dihydroimidazol-1-yl]-(3-methoxyphenyl)methanone], the IC50 turned out to be 2290 pM.

In the case of `CCN1CCN(C2=NCCN2S(=O)(=O)c2c(F)cccc2F)CC1` [Example 108, 1-[1-(2,6-difluorophenyl)sulfonyl-4,5-dihydroimidazol-2-yl]-4-ethyl-piperazine], the IC50 stood at 12800 pM.

`Cc1cccc(C(=O)N2CCN=C2N2CCN(C3CCC3)CC2)c1` [Example 85, [2-(4-cyclobutylpiperazin-1-yl)-4,5-dihydroimidazol-1-yl]-(m-tolyl)methanone]: the IC50 is 3120 pM.

For `CC(C)c1ccc(S(=O)(=O)N2CCN=C2N2CCN(CC3CC3C)CC2)cc1` (stereo not drawn) [Example 38, 1-[1-(4-isopropylphenyl)sulfonyl-4,5-dihydroimidazol-2-yl]-4-[(2-methylcyclopropyl)methyl]piperazine], half-maximal inhibition (IC50) required 492 pM.

As for `O=S(=O)(c1ccc(-c2cccc(Cl)c2)cc1)N1CCN=C1N1CCN(C2CCC2)CC1` [Example 22, 1-[1-[4-(3-chlorophenyl)phenyl]sulfonyl-4,5-dihydroimidazol-2-yl]-4-cyclobutyl-piperazine], the IC50 was determined as 120 pM.

The compound `CCN1CCN(C2=NCCN2S(=O)(=O)c2cccc(Cl)c2)CC1` [Example 113, 1-[1-(3-chlorophenyl)sulfonyl-4,5-dihydroimidazol-2-yl]-4-ethyl-piperazine] displayed an IC50 of 9060 pM.

`O=S(=O)(c1ccc(-c2ccccc2F)cc1)N1CCN=C1N1CCN(C2CCC2)CC1` [Example 25, 1-cyclobutyl-4-[1-[4-(2-fluorophenyl)phenyl]sulfonyl-4,5-dihydroimidazol-2-yl]piperazine] yielded an IC50 of 46 pM. This IC50 lies about 200-fold lower than the previous one.

`CCN1CCN(C2=NCCN2S(=O)(=O)c2ccc(OC)cc2)CC1` [Example 116, 1-ethyl-4-[1-(4-methoxyphenyl)sulfonyl-4,5-dihydroimidazol-2-yl]piperazine]: the IC50 was 5450 pM.
